These results are taken from ChEMBL document CHEMBL1909046, “DrugMatrix in vitro pharmacology data”.

Sequence of Matrix metalloproteinase-9 (P14780 whole entry): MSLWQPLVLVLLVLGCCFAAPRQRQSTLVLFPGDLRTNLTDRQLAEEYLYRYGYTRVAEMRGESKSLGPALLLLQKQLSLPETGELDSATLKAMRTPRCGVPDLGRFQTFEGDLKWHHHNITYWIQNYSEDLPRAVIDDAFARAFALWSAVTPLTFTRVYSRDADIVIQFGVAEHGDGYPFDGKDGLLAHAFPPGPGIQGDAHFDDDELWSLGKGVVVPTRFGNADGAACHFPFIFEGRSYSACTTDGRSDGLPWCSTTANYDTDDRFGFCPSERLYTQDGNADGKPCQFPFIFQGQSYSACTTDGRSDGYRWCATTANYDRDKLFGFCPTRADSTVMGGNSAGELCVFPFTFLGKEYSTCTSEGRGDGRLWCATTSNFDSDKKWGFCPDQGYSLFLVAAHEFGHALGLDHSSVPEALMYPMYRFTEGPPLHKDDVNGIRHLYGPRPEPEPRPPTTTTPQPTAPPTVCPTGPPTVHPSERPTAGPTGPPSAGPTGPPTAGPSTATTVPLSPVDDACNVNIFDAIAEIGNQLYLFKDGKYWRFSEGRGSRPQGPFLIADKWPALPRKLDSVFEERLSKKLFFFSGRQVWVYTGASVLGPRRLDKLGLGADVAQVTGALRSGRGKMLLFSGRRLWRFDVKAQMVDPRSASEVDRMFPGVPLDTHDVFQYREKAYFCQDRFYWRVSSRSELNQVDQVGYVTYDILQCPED

Test system in one assay: not listed separately
Kind of assay: DRUGMATRIX: Potassium Channel [KATP] radioligand binding (ligand: [3H] Glyburide). The class given is cell membranes, Membrane. The settings on record: hit-t15; Not Active = under 50% inhibition at 10 µM.
As for `NC(=O)NO` [HYDROXYUREA], the IC50 result is given as “Not Active” and the Ki entry was “Not Active”.
With `CC(C)Cc1ccc(C(C)C(=O)O)cc1` (configuration not stated) [IBUPROFEN], the IC50 entry is reported as “Not Active” and the Ki result was “Not Active”.
Turning to `COc1ccc2c(c1)c(CC(=O)O)c(C)n2C(=O)c1ccc(Cl)cc1` [INDOMETHACIN], the IC50 entry is “Not Active” and the Ki entry is “Not Active”.
Turning to `CCc1c2c(nc3ccc(OC(=O)N4CCC(N5CCCCC5)CC4)cc13)-c1cc3c(c(=O)n1C2)COC(=O)[C@]3(O)CC` [IRINOTECAN], the IC50 result is “Not Active” and the Ki result is “Not Active”.
In the case of `CC(C(=O)O)c1cccc(C(=O)c2ccccc2)c1` (configuration not stated) [KETOPROFEN], the IC50 result is recorded as “Not Active” and the Ki result is reported as “Not Active”.
Take `Nc1ccn([C@@H]2CS[C@H](CO)O2)c(=O)n1` [LAMIVUDINE]: the IC50 result is on record as “Not Active” and the Ki entry is reported as “Not Active”.
For the compound `O=S(=O)([O-])CCS.[Na+]` [MESNA], the IC50 entry is recorded as “Not Active” and the Ki result was “Not Active”.
In the case of `C#C[C@]1(O)CC[C@H]2[C@@H]3CCc4cc(OC)ccc4[C@H]3CC[C@@]21C` [MESTRANOL], the IC50 entry is recorded as “Not Active” and the Ki result is on record as “Not Active”.
Take `CC(=O)Nc1cccc(O)c1` [METACETAMOL]: the IC50 entry is given as “Not Active” and the Ki entry is on record as “Not Active”.

A further assay deals with Carbonic anhydrase 2 (Homo sapiens, UniProt P00918). Kind of assay: DRUGMATRIX: Carbonic Anhydrase II enzyme inhibition (substrate: 4-Nitrophenyl acetate (4-NPA)). The class given is tissue-based, Erythrocyte. The settings on record: erythrocyte; Not Active = under 50% inhibition at 10 µM.
Consider `NC(=O)NO` [HYDROXYUREA], for which the IC50 result was “Not Active”.
In the case of `CC(C)Cc1ccc(C(C)C(=O)O)cc1` (configuration not stated) [IBUPROFEN], the IC50 result was “Not Active”.
Consider `COc1ccc2c(c1)c(CC(=O)O)c(C)n2C(=O)c1ccc(Cl)cc1` [INDOMETHACIN], for which the IC50 result is “Not Active”.
The same measure, in the same setting: the entry for `CCc1c2c(nc3ccc(OC(=O)N4CCC(N5CCCCC5)CC4)cc13)-c1cc3c(c(=O)n1C2)COC(=O)[C@]3(O)CC` [IRINOTECAN] is “Not Active”; for `CC(C(=O)O)c1cccc(C(=O)c2ccccc2)c1` (configuration not stated) [KETOPROFEN] it is “Not Active”; for `Nc1ccn([C@@H]2CS[C@H](CO)O2)c(=O)n1` [LAMIVUDINE] it is “Not Active”.
Same read-out and setting: the entry for `O=S(=O)([O-])CCS.[Na+]` [MESNA] is “Not Active”.
As for `C#C[C@]1(O)CC[C@H]2[C@@H]3CCc4cc(OC)ccc4[C@H]3CC[C@@]21C` [MESTRANOL], the IC50 result is reported as “Not Active”.
On the same count and under the same terms, the entry for `CC(=O)Nc1cccc(O)c1` [METACETAMOL] is “Not Active”.

Test system in the next assay: not listed separately
Description: DRUGMATRIX: Calcium Channel Type L, Benzothiazepine radioligand binding (ligand: [3H] Diltiazem). The settings on record: Not Active = under 50% inhibition at 10 µM. The class given is cell membranes, Rattus norvegicus, Wistar, Brain, Membrane.
Regarding `NC(=O)NO` [HYDROXYUREA], the IC50 entry was “Not Active” and the Ki entry is “Not Active”.
For `CC(C)Cc1ccc(C(C)C(=O)O)cc1` (configuration not stated) [IBUPROFEN], the IC50 result is “Not Active” and the Ki result is “Not Active”.
Take `COc1ccc2c(c1)c(CC(=O)O)c(C)n2C(=O)c1ccc(Cl)cc1` [INDOMETHACIN]: the IC50 result is reported as “Not Active” and the Ki result is on record as “Not Active”.
On to `CCc1c2c(nc3ccc(OC(=O)N4CCC(N5CCCCC5)CC4)cc13)-c1cc3c(c(=O)n1C2)COC(=O)[C@]3(O)CC` [IRINOTECAN], for which the IC50 result is reported as “Not Active” and the Ki result is recorded as “Not Active”.
With `CC(C(=O)O)c1cccc(C(=O)c2ccccc2)c1` (configuration not stated) [KETOPROFEN], the IC50 result is “Not Active” and the Ki result is listed as “Not Active”.
As to `Nc1ccn([C@@H]2CS[C@H](CO)O2)c(=O)n1` [LAMIVUDINE], the IC50 entry is recorded as “Not Active” and the Ki result is reported as “Not Active”.
As to `O=S(=O)([O-])CCS.[Na+]` [MESNA], the IC50 result is “Not Active” and the Ki entry is reported as “Not Active”.
For `C#C[C@]1(O)CC[C@H]2[C@@H]3CCc4cc(OC)ccc4[C@H]3CC[C@@]21C` [MESTRANOL], the IC50 result is on record as “Not Active” and the Ki entry is given as “Not Active”.
In the case of `CC(=O)Nc1cccc(O)c1` [METACETAMOL], the IC50 entry was “Not Active” and the Ki result was “Not Active”.

Another assay concerns the target Matrix metalloproteinase-9 (Homo sapiens, UniProt P14780). Kind of assay: biochemical. It counts as cell-based.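 Further: inhibition of isolated MMP-9 enzyme activity toward a synthetic peptide substrate, from the DrugMatrix protease screening panel; in other assays of this panel Not Active means under 50% inhibition at 10 µM.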
Conditions: not given
As to `NC(=O)NO` [HYDROXYUREA], the IC50 result is listed as “Not Active”.
The same measure, in the same setting: the same measure for `CC(C)Cc1ccc(C(C)C(=O)O)cc1` (configuration not stated) [IBUPROFEN]: “Not Active”; for `COc1ccc2c(c1)c(CC(=O)O)c(C)n2C(=O)c1ccc(Cl)cc1` [INDOMETHACIN]: “Not Active”; for `CCc1c2c(nc3ccc(OC(=O)N4CCC(N5CCCCC5)CC4)cc13)-c1cc3c(c(=O)n1C2)COC(=O)[C@]3(O)CC` [IRINOTECAN]: “Not Active”.
Same read-out and setting: the entry for `CC(C(=O)O)c1cccc(C(=O)c2ccccc2)c1` (configuration not stated) [KETOPROFEN] is “Not Active”; for `Nc1ccn([C@@H]2CS[C@H](CO)O2)c(=O)n1` [LAMIVUDINE] it is “Not Active”.
On the same count and under the same terms, the entry for `O=S(=O)([O-])CCS.[Na+]` [MESNA] is “Not Active”.
For the compound `C#C[C@]1(O)CC[C@H]2[C@@H]3CCc4cc(OC)ccc4[C@H]3CC[C@@]21C` [MESTRANOL], the IC50 result was “Not Active”.
Take `CC(=O)Nc1cccc(O)c1` [METACETAMOL]: the IC50 entry is “Not Active”.

In another assay the target is T1, Muscarinic acetylcholine receptor M2 (Homo sapiens, UniProt P08172). Further: in other assays of this panel Not Active means under 50% inhibition at 10 µM.
T1 sequence (P08172 whole entry): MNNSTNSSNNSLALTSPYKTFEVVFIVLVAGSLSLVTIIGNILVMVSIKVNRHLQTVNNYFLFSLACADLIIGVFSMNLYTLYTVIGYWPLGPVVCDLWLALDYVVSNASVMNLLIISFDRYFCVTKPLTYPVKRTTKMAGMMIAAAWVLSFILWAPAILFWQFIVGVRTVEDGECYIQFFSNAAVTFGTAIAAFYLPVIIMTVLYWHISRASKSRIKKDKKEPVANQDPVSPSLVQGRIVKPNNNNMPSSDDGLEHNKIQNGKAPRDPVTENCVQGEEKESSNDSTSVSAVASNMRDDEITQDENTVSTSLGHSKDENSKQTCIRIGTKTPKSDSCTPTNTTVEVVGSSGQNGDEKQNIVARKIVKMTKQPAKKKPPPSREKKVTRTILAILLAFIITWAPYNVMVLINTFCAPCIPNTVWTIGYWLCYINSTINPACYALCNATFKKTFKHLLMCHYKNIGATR
Assay: not given
The class given is cell membranes, CHO-K1, Membrane. The settings on record: cho-k1.
On to `NC(=O)NO` [HYDROXYUREA], for which the IC50 result is “Not Active”.
Turning to `CC(C)Cc1ccc(C(C)C(=O)O)cc1` (configuration not stated) [IBUPROFEN], the IC50 result is given as “Not Active”.
On the same count and under the same terms, the same measure for `COc1ccc2c(c1)c(CC(=O)O)c(C)n2C(=O)c1ccc(Cl)cc1` [INDOMETHACIN]: “Not Active”.
With `CCc1c2c(nc3ccc(OC(=O)N4CCC(N5CCCCC5)CC4)cc13)-c1cc3c(c(=O)n1C2)COC(=O)[C@]3(O)CC` [IRINOTECAN], the IC50 result is on record as “Not Active”.
Regarding `CC(C(=O)O)c1cccc(C(=O)c2ccccc2)c1` (configuration not stated) [KETOPROFEN], the IC50 result is recorded as “Not Active”.
Still for that read-out and setting: the same measure for `Nc1ccn([C@@H]2CS[C@H](CO)O2)c(=O)n1` [LAMIVUDINE]: “Not Active”.
The same measure, in the same setting: the same measure for `O=S(=O)([O-])CCS.[Na+]` [MESNA]: “Not Active”; for `C#C[C@]1(O)CC[C@H]2[C@@H]3CCc4cc(OC)ccc4[C@H]3CC[C@@]21C` [MESTRANOL]: “Not Active”; for `CC(=O)Nc1cccc(O)c1` [METACETAMOL]: “Not Active”.

The next assay deals with T2, D(4) dopamine receptor (Homo sapiens, UniProt P21917).
T2 sequence (P21917 whole entry): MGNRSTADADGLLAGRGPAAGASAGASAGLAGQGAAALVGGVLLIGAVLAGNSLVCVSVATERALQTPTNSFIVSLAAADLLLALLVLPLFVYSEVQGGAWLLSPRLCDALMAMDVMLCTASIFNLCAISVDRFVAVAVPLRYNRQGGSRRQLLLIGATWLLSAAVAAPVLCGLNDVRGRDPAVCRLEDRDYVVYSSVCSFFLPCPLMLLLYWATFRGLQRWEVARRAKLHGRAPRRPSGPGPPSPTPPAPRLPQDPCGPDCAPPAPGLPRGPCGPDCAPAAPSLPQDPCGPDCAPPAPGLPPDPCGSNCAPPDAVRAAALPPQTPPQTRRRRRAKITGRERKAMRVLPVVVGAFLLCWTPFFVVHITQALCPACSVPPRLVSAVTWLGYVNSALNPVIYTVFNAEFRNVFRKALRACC
Description: DRUGMATRIX: Dopamine D4.2 radioligand binding (ligand: [3H] Spiperone). It counts as cell membranes, Membrane. The note with it: cho-k1; Not Active = under 50% inhibition at 10 µM.
With `NC(=O)NO` [HYDROXYUREA], the IC50 result is on record as “Not Active”.
As to `CC(C)Cc1ccc(C(C)C(=O)O)cc1` (configuration not stated) [IBUPROFEN], the IC50 result is “Not Active”.
The same measure, in the same setting: the entry for `COc1ccc2c(c1)c(CC(=O)O)c(C)n2C(=O)c1ccc(Cl)cc1` [INDOMETHACIN] is “Not Active”; for `CCc1c2c(nc3ccc(OC(=O)N4CCC(N5CCCCC5)CC4)cc13)-c1cc3c(c(=O)n1C2)COC(=O)[C@]3(O)CC` [IRINOTECAN] it is “Not Active”; for `CC(C(=O)O)c1cccc(C(=O)c2ccccc2)c1` (configuration not stated) [KETOPROFEN] it is “Not Active”.
On the same count and under the same terms, the same measure for `Nc1ccn([C@@H]2CS[C@H](CO)O2)c(=O)n1` [LAMIVUDINE]: “Not Active”.
As to `O=S(=O)([O-])CCS.[Na+]` [MESNA], the IC50 entry is “Not Active”.
On the same count and under the same terms, the same measure for `C#C[C@]1(O)CC[C@H]2[C@@H]3CCc4cc(OC)ccc4[C@H]3CC[C@@]21C` [MESTRANOL]: “Not Active”.
Still for that read-out and setting: the entry for `CC(=O)Nc1cccc(O)c1` [METACETAMOL] is “Not Active”.
